According to patent US20230227447A1, “BENZYLAMINE DERIVATIVES AS DDRS INHIBITORS” (CHIESI FARMACEUTICI S.P.A., priority 2020, published 2023):

How the values were obtained:
DDR2 = biological target: T1, DDR2 (Homo sapiens, UniProt Q16832); assay: DDR2 binding assay (LanthaScreen Europium Kinase Binding assay); set-up: purchased Life Technologies; conditions: 5 nM DDR2, 10 nM Kinase Tracer 178, 1 hour at room temperature; Ki from IC50 by Cheng-Prusoff
T1 sequence (Q16832 22-855): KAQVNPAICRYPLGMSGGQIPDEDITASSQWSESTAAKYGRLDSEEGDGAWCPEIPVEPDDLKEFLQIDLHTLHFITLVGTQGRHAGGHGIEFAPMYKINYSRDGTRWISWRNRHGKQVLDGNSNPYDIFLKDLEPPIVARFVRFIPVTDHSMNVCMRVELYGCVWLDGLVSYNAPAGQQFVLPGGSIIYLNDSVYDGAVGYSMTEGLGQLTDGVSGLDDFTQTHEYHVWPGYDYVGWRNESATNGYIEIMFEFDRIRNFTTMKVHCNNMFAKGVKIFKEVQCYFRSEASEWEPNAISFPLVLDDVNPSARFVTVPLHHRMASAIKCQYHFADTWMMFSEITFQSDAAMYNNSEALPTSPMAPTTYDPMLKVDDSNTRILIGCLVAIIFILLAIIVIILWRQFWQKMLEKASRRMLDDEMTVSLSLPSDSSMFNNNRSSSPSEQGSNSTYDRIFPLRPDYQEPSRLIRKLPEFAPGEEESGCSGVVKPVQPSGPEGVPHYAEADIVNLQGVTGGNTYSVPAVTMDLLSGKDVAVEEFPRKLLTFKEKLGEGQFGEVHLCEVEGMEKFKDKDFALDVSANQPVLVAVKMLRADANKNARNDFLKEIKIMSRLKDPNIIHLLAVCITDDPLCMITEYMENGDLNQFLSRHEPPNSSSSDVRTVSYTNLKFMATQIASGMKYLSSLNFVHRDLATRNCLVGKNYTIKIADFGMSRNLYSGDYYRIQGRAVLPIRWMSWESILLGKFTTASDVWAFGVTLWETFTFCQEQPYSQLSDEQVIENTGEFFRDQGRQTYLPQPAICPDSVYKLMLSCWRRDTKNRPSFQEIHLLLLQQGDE
Experimental: (§1) DDR1 and DDR2 binding assays were performed using Life Technologies LanthaScreen™ Europium Kinase Binding assay. The compounds were incubated with 5 nM DDR1 (Carna Biosciences) or 5 nM DDR2 (Life Technologies) for 1 hour at room temperature in white 384-well OptiPlate (PerkinElmer), containing 20 nM or 10 nM Kinase Tracer 178 respectively and 2 nM Europium labelled anti-GST antibody (Life Technologies) in assay buffer (50 mM HEPES pH 7.5, 10 mM MgCl2, 1 mM EGTA and 0.01% BRIJ35).
(§2) The ratio of fluorescence emission 665 nm/615 nm after excitation at 340 nm was obtained using the Tecan Spark 20M plate reader. IC50 values were determined in GraphPad Prism 7.0 software, using 4 parameter model: log(inhibitor) vs. response. IC50 values were converted in Ki using the Cheng-Prusoff equation (Ki=IC50/(1+[Tracer]/Kd).

DDR1 = DDR1 (Homo sapiens, UniProt Q08345); assay: DDR1 binding assay (LanthaScreen Europium Kinase Binding assay); set-up: purchased Carna Biosciences; conditions: 5 nM DDR1, 20 nM Kinase Tracer 178, 1 hour at room temperature; Ki from IC50 by Cheng-Prusoff
Experimental: as §1, §2

DDR1, sequence (Q08345 19-913): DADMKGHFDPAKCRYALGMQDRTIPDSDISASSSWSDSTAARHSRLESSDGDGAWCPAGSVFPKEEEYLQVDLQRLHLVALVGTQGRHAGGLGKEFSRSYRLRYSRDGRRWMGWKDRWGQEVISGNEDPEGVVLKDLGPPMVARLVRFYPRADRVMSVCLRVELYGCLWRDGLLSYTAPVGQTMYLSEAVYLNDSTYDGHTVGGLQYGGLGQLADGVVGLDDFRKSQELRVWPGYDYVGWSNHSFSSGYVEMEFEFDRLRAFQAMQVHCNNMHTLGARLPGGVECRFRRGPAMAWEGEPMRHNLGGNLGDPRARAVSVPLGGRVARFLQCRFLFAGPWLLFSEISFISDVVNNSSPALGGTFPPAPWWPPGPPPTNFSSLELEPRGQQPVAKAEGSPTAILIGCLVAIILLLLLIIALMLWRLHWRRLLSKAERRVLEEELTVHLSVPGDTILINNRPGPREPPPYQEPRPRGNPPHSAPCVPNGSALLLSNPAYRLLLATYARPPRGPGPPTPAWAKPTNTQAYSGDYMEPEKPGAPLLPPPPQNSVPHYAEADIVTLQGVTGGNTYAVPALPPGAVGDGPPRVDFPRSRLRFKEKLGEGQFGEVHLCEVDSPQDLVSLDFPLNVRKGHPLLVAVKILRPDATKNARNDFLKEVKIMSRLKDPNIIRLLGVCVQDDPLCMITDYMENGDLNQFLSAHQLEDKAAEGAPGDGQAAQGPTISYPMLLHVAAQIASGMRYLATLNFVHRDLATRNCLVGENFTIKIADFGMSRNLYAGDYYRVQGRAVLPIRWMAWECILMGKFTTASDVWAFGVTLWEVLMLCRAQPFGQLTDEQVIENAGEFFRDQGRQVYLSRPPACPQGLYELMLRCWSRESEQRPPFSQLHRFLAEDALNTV

SMILES | Ki (DDR2) [nM] | Ki (DDR1) [nM]
Cc1cn(-c2cc(NC(=O)c3ccc(C)c(CNc4cnc5ccnn5c4)c3)cc(C(F)(F)F)c2)cn1 [Example 1, 4-methyl-N-(3-(4-methyl-1H-imidazol-1-yl)-5-(trifluoromethyl)phenyl)-3-((pyrazolo[1,5-a]pyrimidin-6-ylamino)methyl)benzamide] | < 30 | < 30
CCN(Cc1cc(C(=O)Nc2cc(-n3cnc(C)c3)cc(C(F)(F)F)c2)ccc1C)c1cnc2ccnn2c1 [Example 2, 3-((ethyl(pyrazolo[1,5-a]pyrimidin-6-yl)amino)methyl)-4-methyl-N-(3-(4-methyl-1H-imidazol-1-yl)-5-(trifluoromethyl)phenyl)benzamide] | 300 to 1000 | < 30
Cc1cn(-c2cc(NC(=O)c3ccc(C)c(CNc4ccc5ncsc5c4)c3)cc(C(F)(F)F)c2)cn1 [Example 3, 3-((benzo[d]thiazol-6-ylamino)methyl)-4-methyl-N-(3-(4-methyl-1H-imidazol-1-yl)-5-(trifluoromethyl)phenyl)benzamide] | 30 to 300 | 30 to 300
Cc1cn(-c2cc(NC(=O)c3ccc(C)c(CNc4ccc5[nH]ncc5c4)c3)cc(C(F)(F)F)c2)cn1 [Example 4, 3-(((1H-indazol-5-yl)amino)methyl)-4-methyl-N-(3-(4-methyl-1H-imidazol-1-yl)-5-(trifluoromethyl)phenyl)benzamide] | 30 to 300 | 30 to 300
Cc1cn(-c2cc(NC(=O)c3ccc(C)c(CNc4cnc5[nH]ccc5c4)c3)cc(C(F)(F)F)c2)cn1 [Example 5, 3-(((1H-pyrrolo[2,3-b]pyridin-5-yl)amino)methyl)-4-methyl-N-(3-(4-methyl-1H-imidazol-1-yl)-5-(trifluoromethyl)phenyl)benzamide] | < 30 | < 30
Cc1cn(-c2cc(NC(=O)c3ccc(C)c(CNC4CNc5ccnn5C4)c3)cc(C(F)(F)F)c2)cn1 (centres unmarked) [Example 6, 4-methyl-N-(3-(4-methyl-1H-imidazol-1-yl)-5-(trifluoromethyl)phenyl)-3-(((4,5,6,7-tetrahydropyrazolo[1,5-a]pyrimidin-6-yl)amino)methyl)benzamide] | 300 to 1000 | 300 to 1000
Cc1cn(-c2cc(NC(=O)c3ccc(C)c(CNc4ccnc(C#N)c4)c3)cc(C(F)(F)F)c2)cn1 [Example 7, 3-(((2-cyanopyridin-4-yl)amino)methyl)-4-methyl-N-(3-(4-methyl-1H-imidazol-1-yl)-5-(trifluoromethyl)phenyl)benzamide] | 30 to 300 | 30 to 300
Cc1cn(-c2cc(NC(=O)c3ccc(C)c(CNc4ccc(C#N)cn4)c3)cc(C(F)(F)F)c2)cn1 [Example 8, 3-(((5-cyanopyridin-2-yl)amino)methyl)-4-methyl-N-(3-(4-methyl-1H-imidazol-1-yl)-5-(trifluoromethyl)phenyl)benzamide] | 30 to 300 | 30 to 300
Cc1ccc(NC(=O)c2cc(CN3CCN(C)CC3)cc(C(F)(F)F)c2)cc1CNc1cncnc1 [Example 9, N-(4-methyl-3-((pyrimidin-5-ylamino)methyl)phenyl)-3-((4-methylpiperazin-1-yl)methyl)-5-(trifluoromethyl)benzamide] | < 30 | < 30
CNC(=O)c1cc(NCc2cc(NC(=O)c3cc(CN4CCN(C)CC4)cc(C(F)(F)F)c3)ccc2C)ccn1 [Example 10, N-methyl-4-((2-methyl-5-(3-((4-methylpiperazin-1-yl)methyl)-5-(trifluoromethyl)benzamido)benzyl)amino)picolinamide] | 30 to 300 | < 30
Cc1ccc(NC(=O)c2cc(CN3CCN(C)CC3)cc(C(F)(F)F)c2)cc1CNCc1cncnc1 [Example 11, N-(4-methyl-3-(((pyrimidin-5-ylmethyl)amino)methyl)phenyl)-3-((4-methylpiperazin-1-yl)methyl)-5-(trifluoromethyl)benzamide] | 300 to 1000 | 300 to 1000
Cc1ccc(NC(=O)c2cc(CN3CCN(C)CC3)cc(C(F)(F)F)c2)cc1CN(Cc1cnc2ccccn12)Cc1cnc2ccccn12 [Example 12, N-(3-((bis(imidazo[1,2-a]pyridin-3-ylmethyl)amino)methyl)-4-methylphenyl)-3-((4-methylpiperazin-1-yl)methyl)-5-(trifluoromethyl)benzamide] | 30 to 300 | < 30
Cc1ccc(NC(=O)c2cc(CN3CCN(C)CC3)cc(C(F)(F)F)c2)cc1CNCc1cnc2ccccn12 [Example 13, N-(3-(((imidazo[1,2-a]pyridin-3-ylmethyl)amino)methyl)-4-methylphenyl)-3-((4-methylpiperazin-1-yl)methyl)-5-(trifluoromethyl)benzamide] | < 30 | < 30
CNC(=O)c1cc(CNCc2cc(NC(=O)c3cc(CN4CCN(C)CC4)cc(C(F)(F)F)c3)ccc2C)ccn1 [Example 14, N-methyl-4-(((2-methyl-5-(3-((4-methylpiperazin-1-yl)methyl)-5-(trifluoromethyl)benzamido)benzyl)amino)methyl)picolinamide] | 30 to 300 | 30 to 300
Cc1ccc(NC(=O)c2cc(CN3CCN(C)CC3)cc(C(F)(F)F)c2)cc1CNCc1cnc2[nH]ccc2c1 [Example 15, N-(3-((((1H-pyrrolo[2,3-b]pyridin-5-yl)methyl)amino)methyl)-4-methylphenyl)-3-((4-methylpiperazin-1-yl)methyl)-5-(trifluoromethyl)benzamide] | 30 to 300 | 30 to 300
CC(C)c1ccc(C(=O)Nc2cc(CN3CCN(C)CC3)cc(C(F)(F)F)c2)cc1CNc1cnc2ccnn2c1 [Example 16, 4-isopropyl-N-(3-((4-methylpiperazin-1-yl)methyl)-5-(trifluoromethyl)phenyl)-3-((pyrazolo[1,5-a]pyrimidin-6-ylamino)methyl)benzamide] | 30 to 300 | 30 to 300
CCCc1ccc(C(=O)Nc2cc(CN3CCN(C)CC3)cc(C(F)(F)F)c2)cc1CNc1cnc2ccnn2c1 [Example 17, N-(3-((4-methylpiperazin-1-yl)methyl)-5-(trifluoromethyl)phenyl)-4-propyl-3-((pyrazolo[1,5-a]pyrimidin-6-ylamino)methyl)benzamide] | 30 to 300 | 30 to 300
Cc1ccc(C(=O)Nc2cc(CN3CCN(C)CC3)cc(C(F)(F)F)c2)cc1CNc1cnc2ccnn2c1 [Example 18, 4-methyl-N-(3-((4-methylpiperazin-1-yl)methyl)-5-(trifluoromethyl)phenyl)-3-((pyrazolo[1,5-a]pyrimidin-6-ylamino)methyl)benzamide] | 30 to 300 | < 30
Cc1ccc(C(=O)Nc2cc(CN3CCN(C)CC3)cc(C(F)(F)F)c2)cc1CNc1cncnc1 [Example 19, 4-methyl-N-(3-((4-methylpiperazin-1-yl)methyl)-5-(trifluoromethyl)phenyl)-3-((pyrimidin-5-ylamino)methyl)benzamide] | < 30 | < 30
Cc1ccc(C(=O)Nc2cc(CN3CCN(C)CC3)cc(C(F)(F)F)c2)cc1CNC(=O)c1cnc2ccccn12 [Example 21, N-(2-methyl-5-((3-((4-methylpiperazin-1-yl)methyl)-5-(trifluoromethyl)phenyl)carbamoyl)benzyl)imidazo[1,2-a]pyridine-3-carboxamide] | < 30 | < 30
Cc1cn(-c2cc(NC(=O)c3ccc(C)c(CNC(=O)c4cnc5ccccn45)c3)cc(C(F)(F)F)c2)cn1 [Example 22, N-(2-methyl-5-((3-(4-methyl-1H-imidazol-1-yl)-5-(trifluoromethyl)phenyl)carbamoyl)benzyl)imidazo[1,2-a]pyridine-3-carboxamide] | < 30 | < 30
CNC(=O)c1cc(NCc2cc(C(=O)Nc3cc(-n4cnc(C)c4)cc(C(F)(F)F)c3)ccc2C)ccn1 [Example 23, N-methyl-4-((2-methyl-5-((3-(4-methyl-1H-imidazol-1-yl)-5-(trifluoromethyl)phenyl)carbamoyl)benzyl)amino)picolinamide] | < 30 | < 30
